From US5770382A, “Tricyclic retinoids, methods for their production and use” (Ligand Pharmaceuticals, Inc., priority 1995, dated 1998)
pEC50: −log10 of the molar value.

Key:
RARβ = biological target: T1, RARβ (Homo sapiens, UniProt P10826); test: Co-transfection assay, RARβ agonist activity; type: cell-based; details: CV-1 cells, 40 hours; read-out: RARβ Pot (potency, EC50)
T1 construct: expressed in transfected cells; host or cells: CV-1 (African green monkey kidney fibroblasts)
T1 sequence (P10826 1-448 isoform P10826-2): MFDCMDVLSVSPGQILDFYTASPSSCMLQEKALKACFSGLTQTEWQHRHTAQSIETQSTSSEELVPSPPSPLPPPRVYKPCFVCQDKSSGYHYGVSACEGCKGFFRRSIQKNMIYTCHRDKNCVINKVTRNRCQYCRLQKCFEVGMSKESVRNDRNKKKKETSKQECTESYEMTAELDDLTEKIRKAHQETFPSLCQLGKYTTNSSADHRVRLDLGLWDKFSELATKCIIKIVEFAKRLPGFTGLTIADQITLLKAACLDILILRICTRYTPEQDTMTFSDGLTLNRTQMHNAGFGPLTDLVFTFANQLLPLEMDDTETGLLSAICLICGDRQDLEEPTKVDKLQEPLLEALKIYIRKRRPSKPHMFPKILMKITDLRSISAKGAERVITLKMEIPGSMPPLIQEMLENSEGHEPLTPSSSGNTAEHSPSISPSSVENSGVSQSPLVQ

RXRs = test: Co-transfection assay, summary for the RXRs; type: cell-based
Method: Utilizing the "cis-trans" or "co-transfection" assay described by Evans et al., Science, 240:889-95 (May 13, 1988), the disclosure of which is herein incorporated by reference, the retinoid compounds of the present invention were tested and found to have strong, specific activity as either selective RAR agonists, selective RXR agonists, or as pan-agonist activators of both RAR and RXR receptors. This assay is described in further detail in U.S. Pat. Nos. 4,981,784 and 5,071,773, the disclosures of which are incorporated herein by reference.
The co-transfection assay provides a method for identifying functional agonists which mimic, or antagonists which inhibit, the effect of native hormones, and quantifying their activity for responsive IR proteins. In this regard, the co-transfection assay mimics an in vivo system in the laboratory. Importantly, activity in the co-transfection assay correlates very well with known in vivo activity, such that the co-transfection assay functions as a qualitative and quantitative predictor of a tested compounds Ln vivo pharmacology. See, e.g., T. Berger et al. 41 J. Steroid Biochem. Molec. […]
The co-transfection assay can detect small molecule agonists or antagonists of target IRs. […] This activity can be conveniently measured, e.g., by increasing luciferase production, which reflects compound-dependent, IR-mediated increases in reporter transcription. […]

pEC50 (RARβ): 7.21
SMILES: CC(/C=C/C=C1/CC(C)(C)Oc2cc3c(cc21)C(C)(C)CCC3(C)C)=C\C(=O)O [Compound 104b, (2E,4E)-3-Methyl-6-(2,3,6,7,8,9-hexahydro-2,2,6,6,9,9-hexamethylbenzo[b]-chromen-4-ylidene)-hexa-2,4-dienoic acid]
RXR activity / selectivity (in words) (RXRs): potent and selective RXR compound
